According to ChEMBL document CHEMBL5291721, “A preclinical secondary pharmacology resource illuminates target-adverse drug reaction associations of marketed drugs” (Nat Commun, 2023):

What was measured:
[1] = target: Beta-2 adrenergic receptor (Homo sapiens, UniProt P07550); format: functional, cell-based
[2] = target: Histamine H2 receptor (Homo sapiens, UniProt P25021); format: functional, cell-based
[3] = target: T1, 5-hydroxytryptamine receptor 1A (Homo sapiens, UniProt P08908); format: functional, cell-based
T1 sequence (P08908 whole entry): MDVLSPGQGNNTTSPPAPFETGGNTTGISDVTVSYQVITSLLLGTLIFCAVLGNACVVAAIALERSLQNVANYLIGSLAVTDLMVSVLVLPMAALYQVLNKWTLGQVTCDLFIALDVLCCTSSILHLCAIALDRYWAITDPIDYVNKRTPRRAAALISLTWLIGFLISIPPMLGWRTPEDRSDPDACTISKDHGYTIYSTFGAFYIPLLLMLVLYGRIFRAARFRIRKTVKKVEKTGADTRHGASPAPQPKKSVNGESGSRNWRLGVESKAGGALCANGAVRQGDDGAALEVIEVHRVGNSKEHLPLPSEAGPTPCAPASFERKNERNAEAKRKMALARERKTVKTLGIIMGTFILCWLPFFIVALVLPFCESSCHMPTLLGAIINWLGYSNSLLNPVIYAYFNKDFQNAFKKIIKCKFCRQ

[4] = target: 5-hydroxytryptamine receptor 2A (Homo sapiens, UniProt P28223); format: functional, cell-based
[5] = target: Mu-type opioid receptor (Homo sapiens, UniProt P35372); experiment: biochemical; format: functional
[6] = target: Cannabinoid receptor 1 (Homo sapiens, UniProt P21554)
[7] = target: T1, 5-hydroxytryptamine receptor 1A
[8] = target: Voltage-dependent N-type calcium channel subunit alpha-1B (Rattus norvegicus, UniProt Q02294); format: functional
[9] = target: T2, Corticotropin-releasing factor receptor 2 (Homo sapiens, UniProt Q13324)
T2 sequence (Q13324 whole entry): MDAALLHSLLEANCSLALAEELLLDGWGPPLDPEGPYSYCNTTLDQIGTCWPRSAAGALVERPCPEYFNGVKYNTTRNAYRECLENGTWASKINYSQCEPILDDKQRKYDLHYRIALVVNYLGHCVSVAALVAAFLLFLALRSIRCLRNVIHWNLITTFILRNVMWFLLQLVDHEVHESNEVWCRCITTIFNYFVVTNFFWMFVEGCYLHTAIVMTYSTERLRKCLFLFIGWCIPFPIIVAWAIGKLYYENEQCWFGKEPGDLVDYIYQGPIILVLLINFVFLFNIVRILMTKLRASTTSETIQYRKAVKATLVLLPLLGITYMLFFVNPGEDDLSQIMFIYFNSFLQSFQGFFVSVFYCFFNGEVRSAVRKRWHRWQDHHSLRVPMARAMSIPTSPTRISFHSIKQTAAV

[10] = target: Neurotensin receptor type 1 (Homo sapiens, UniProt P30989)
Note: assay procedure not described here.

Beta-2 adrenergic receptor, sequence (P07550 whole entry): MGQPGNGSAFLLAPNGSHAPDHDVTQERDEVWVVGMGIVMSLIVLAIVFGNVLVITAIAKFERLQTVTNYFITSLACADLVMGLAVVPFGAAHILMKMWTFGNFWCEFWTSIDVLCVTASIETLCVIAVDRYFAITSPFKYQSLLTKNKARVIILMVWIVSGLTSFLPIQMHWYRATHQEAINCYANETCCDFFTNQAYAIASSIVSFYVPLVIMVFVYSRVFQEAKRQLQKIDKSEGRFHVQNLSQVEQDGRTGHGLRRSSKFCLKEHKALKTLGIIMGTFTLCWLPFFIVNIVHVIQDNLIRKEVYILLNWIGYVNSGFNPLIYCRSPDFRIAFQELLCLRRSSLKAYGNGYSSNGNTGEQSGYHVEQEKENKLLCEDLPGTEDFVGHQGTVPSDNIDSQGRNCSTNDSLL
Mu-type opioid receptor, sequence (P35372 whole entry): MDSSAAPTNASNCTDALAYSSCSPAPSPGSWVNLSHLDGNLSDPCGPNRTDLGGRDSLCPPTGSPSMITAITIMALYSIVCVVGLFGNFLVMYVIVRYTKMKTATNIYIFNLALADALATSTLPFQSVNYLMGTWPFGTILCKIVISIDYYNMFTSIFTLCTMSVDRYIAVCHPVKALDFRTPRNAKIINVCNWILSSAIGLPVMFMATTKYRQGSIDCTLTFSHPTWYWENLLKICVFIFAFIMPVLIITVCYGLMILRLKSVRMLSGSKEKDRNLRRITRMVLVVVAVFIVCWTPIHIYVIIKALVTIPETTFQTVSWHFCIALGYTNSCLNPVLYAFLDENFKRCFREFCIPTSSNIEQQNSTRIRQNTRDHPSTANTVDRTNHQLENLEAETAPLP
Histamine H2 receptor, sequence (P25021 whole entry): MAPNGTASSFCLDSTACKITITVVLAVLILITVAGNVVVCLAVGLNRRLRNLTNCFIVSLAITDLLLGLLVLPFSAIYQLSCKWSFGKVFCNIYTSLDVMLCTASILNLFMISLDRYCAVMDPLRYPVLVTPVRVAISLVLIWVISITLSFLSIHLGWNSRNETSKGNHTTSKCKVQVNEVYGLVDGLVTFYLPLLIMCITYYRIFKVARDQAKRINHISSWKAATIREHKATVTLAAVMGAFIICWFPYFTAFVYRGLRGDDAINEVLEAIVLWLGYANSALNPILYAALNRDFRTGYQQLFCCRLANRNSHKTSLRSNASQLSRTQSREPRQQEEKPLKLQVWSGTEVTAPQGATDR
Cannabinoid receptor 1, sequence (P21554 whole entry): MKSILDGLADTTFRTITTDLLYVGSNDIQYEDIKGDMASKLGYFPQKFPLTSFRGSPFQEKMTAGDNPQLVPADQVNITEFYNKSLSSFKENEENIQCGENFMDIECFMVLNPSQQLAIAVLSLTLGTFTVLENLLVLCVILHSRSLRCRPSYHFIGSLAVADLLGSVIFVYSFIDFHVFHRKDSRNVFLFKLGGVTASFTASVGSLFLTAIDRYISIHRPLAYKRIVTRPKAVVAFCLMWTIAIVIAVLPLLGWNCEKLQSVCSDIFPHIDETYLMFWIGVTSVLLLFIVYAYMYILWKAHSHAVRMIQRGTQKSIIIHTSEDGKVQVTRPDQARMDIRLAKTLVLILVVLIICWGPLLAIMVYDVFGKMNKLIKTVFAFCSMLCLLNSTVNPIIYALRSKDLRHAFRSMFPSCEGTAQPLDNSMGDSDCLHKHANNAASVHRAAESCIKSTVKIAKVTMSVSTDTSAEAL
5-hydroxytryptamine receptor 2A, sequence (P28223 whole entry): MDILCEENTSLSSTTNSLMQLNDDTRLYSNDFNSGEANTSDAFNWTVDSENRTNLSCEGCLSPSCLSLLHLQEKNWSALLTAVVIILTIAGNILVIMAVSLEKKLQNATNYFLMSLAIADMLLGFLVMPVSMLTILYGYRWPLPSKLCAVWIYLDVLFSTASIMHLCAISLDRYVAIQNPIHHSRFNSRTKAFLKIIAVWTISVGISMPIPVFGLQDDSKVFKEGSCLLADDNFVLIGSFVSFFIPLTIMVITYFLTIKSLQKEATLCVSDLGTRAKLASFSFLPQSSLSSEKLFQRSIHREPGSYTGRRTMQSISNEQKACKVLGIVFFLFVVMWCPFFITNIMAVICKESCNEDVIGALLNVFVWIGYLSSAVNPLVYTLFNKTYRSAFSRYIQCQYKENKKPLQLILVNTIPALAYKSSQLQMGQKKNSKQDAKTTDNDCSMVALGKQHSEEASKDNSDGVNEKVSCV
Voltage-dependent N-type calcium channel subunit alpha-1B, sequence (Q02294 whole entry): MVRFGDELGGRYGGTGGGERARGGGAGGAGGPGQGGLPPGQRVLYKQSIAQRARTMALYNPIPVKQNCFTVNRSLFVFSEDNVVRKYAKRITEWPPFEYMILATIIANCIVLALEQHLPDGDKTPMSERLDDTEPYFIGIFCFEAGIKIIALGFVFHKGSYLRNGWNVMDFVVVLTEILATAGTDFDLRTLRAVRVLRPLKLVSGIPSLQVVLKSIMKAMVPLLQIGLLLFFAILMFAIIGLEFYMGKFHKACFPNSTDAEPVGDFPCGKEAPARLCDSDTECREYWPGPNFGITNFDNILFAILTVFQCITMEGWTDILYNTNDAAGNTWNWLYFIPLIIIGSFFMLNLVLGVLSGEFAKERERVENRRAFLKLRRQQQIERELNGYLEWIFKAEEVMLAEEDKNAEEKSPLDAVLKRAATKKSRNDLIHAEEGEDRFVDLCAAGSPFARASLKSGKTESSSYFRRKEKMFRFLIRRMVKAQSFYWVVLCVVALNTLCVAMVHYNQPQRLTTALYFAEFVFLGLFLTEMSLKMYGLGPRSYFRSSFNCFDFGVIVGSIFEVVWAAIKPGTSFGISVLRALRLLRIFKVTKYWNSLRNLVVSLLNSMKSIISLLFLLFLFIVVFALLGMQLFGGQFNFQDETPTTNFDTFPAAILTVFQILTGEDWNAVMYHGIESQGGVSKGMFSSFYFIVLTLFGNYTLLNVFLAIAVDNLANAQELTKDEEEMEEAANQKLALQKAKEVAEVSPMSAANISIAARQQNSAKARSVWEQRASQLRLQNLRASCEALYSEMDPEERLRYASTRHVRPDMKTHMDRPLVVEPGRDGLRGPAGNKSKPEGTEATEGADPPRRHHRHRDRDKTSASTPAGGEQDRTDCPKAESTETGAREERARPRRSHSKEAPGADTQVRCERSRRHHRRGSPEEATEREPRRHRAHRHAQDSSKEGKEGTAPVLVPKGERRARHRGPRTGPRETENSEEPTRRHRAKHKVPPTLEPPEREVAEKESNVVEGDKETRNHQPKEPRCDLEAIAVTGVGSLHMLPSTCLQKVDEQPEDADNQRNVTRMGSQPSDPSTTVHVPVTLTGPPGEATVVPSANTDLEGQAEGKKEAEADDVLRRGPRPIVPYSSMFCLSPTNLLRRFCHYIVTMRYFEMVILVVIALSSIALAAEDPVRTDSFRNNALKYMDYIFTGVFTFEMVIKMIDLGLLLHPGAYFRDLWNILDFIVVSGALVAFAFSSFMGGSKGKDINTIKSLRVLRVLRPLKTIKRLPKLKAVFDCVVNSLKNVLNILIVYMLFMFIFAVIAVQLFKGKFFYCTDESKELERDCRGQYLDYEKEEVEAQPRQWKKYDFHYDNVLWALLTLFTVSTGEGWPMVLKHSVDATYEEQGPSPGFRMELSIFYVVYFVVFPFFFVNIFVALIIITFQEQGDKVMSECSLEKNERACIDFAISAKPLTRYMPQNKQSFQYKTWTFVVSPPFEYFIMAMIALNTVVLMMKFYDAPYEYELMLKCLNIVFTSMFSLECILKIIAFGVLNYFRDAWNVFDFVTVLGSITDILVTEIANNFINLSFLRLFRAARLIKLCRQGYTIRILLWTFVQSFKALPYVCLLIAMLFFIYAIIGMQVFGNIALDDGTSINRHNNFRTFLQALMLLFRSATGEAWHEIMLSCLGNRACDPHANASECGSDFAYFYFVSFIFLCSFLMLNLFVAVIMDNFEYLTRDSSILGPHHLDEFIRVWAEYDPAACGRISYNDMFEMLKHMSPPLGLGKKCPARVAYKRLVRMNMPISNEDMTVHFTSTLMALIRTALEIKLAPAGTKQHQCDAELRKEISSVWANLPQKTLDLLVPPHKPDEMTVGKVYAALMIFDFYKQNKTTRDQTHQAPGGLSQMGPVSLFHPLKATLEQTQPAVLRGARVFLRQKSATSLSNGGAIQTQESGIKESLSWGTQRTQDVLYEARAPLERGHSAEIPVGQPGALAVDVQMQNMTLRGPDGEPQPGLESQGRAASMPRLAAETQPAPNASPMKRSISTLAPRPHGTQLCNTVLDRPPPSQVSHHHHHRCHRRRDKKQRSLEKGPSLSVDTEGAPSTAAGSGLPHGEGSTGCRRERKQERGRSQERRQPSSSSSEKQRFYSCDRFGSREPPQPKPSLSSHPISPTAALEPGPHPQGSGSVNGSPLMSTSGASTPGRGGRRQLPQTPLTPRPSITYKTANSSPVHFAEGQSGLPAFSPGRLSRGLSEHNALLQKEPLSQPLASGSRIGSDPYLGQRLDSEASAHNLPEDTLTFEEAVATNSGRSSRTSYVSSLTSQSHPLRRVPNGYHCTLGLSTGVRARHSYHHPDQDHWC
Neurotensin receptor type 1, sequence (P30989 whole entry): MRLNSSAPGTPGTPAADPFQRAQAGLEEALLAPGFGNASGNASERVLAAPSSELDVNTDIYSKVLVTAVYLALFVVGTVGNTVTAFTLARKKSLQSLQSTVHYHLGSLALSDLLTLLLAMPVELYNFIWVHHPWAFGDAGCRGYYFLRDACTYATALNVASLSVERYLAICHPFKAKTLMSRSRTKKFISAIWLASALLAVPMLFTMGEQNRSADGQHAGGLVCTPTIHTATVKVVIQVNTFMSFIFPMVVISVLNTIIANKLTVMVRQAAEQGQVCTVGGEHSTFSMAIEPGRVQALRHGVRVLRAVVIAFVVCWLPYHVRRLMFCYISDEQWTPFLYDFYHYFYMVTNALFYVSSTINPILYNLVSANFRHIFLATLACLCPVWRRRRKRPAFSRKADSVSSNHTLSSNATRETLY

CS(=O)(=O)NC(=O)CCC/C=C\C[C@H]1C(=O)C[C@@H](O)[C@@H]1/C=C/[C@@H](O)COc1ccccc1 [SULPROSTONE]
AC50 [1]: > 30 µM | AC50 [2]: > 30 µM | AC50 [3]: > 30 µM | AC50 [4]: > 30 µM | AC50 [5]: > 30 µM

O=C(O)CCCC[C@@H]1SC[C@@H]2NC(=O)N[C@@H]21 [BIOTIN]
AC50 [6]: > 10 µM | AC50 [2]: > 10 µM | AC50 [3]: > 10 µM

N=C(N)NC(=O)Cc1c(Cl)cccc1Cl [GUANFACINE]
AC50 [6]: > 10 µM | AC50 [2]: > 30 µM | AC50 [3]: 5.4 µM | AC50 [5]: > 30 µM | AC50 [7]: 11.5 µM

O=C(C[S+]([O-])Cc1ccco1)NC/C=C\COc1cc(CN2CCCCC2)ccn1 (centres undefined) [LAFUTIDINE]
AC50 [6]: > 10 µM | AC50 [2]: > 10 µM | AC50 [3]: > 30 µM | AC50 [4]: > 30 µM

CCC1(C)CC(=O)NC1=O (centres undefined) [ETHOSUXIMIDE]
AC50 [6]: > 10 µM | AC50 [2]: > 30 µM | AC50 [3]: > 10 µM | AC50 [5]: > 30 µM

CO/N=C(\C(=O)N[C@@H]1C(=O)N2C(C(=O)O)=C(CSc3nc(C)c(CC(=O)O)s3)CS[C@H]12)c1csc(N)n1 [CEFODIZIME]
AC50 [2]: > 30 µM | AC50 [3]: > 30 µM | AC50 [4]: > 30 µM | AC50 [5]: > 30 µM

CCN1C(=O)NC(c2ccccc2)C1=O (centres undefined) [ETHOTOIN]
AC50 [1]: > 30 µM | AC50 [2]: > 30 µM | AC50 [3]: > 30 µM | AC50 [4]: > 30 µM | AC50 [5]: > 30 µM

Cc1cccc(Nc2ccncc2S(=O)(=O)NC(=O)NC(C)C)c1 [TORSEMIDE]
AC50 [6]: > 10 µM | AC50 [2]: > 10 µM | AC50 [3]: > 10 µM | AC50 [5]: > 30 µM

CC(C)(C)NCC(O)COc1cccc2c1CC(O)C(O)C2 (centres undefined) [NADOLOL]
AC50 [6]: > 10 µM | AC50 [2]: > 10 µM | AC50 [3]: > 10 µM

Nc1nc(Cl)nc2c1ncn2[C@@H]1O[C@H](CO)[C@@H](O)[C@@H]1F [CLOFARABINE]
AC50 [6]: > 30 µM | AC50 [2]: > 30 µM | AC50 [3]: > 30 µM | AC50 [4]: > 30 µM | AC50 [5]: > 30 µM

CC(=O)N1CCN(c2ccc(OCC3COC(Cn4ccnc4)(c4ccc(Cl)cc4Cl)O3)cc2)CC1 (centres undefined) [KETOCONAZOLE]
AC50 [6]: > 10 µM | AC50 [2]: > 10 µM | AC50 [3]: > 10 µM

CC1CC(OC(=O)C(O)c2ccccc2)CC(C)(C)C1 (centres undefined) [CYCLANDELATE]
AC50 [6]: > 10 µM | AC50 [2]: > 10 µM | AC50 [3]: > 10 µM

CCN(CC)CCCN(c1ccccc1)C1Cc2ccccc2C1 [APRINDINE]
AC50 [1]: > 30 µM | AC50 [6]: > 10 µM | AC50 [2]: > 30 µM | AC50 [3]: > 30 µM | AC50 [4]: 2.89 µM | AC50 [5]: > 30 µM

CC1=C(C(=O)O)N2C(=O)[C@@H](NC(=O)[C@H](N)C3=CCC=CC3)[C@H]2SC1 [CEPHRADINE]
AC50 [1]: > 30 µM | AC50 [2]: > 30 µM | AC50 [3]: > 30 µM | AC50 [4]: > 30 µM | AC50 [5]: > 30 µM

CCN(CC)Cc1nccn1-c1ccc([N+](=O)[O-])cc1C(=O)c1ccccc1Cl [NIZOFENONE]
AC50 [2]: > 30 µM | AC50 [3]: > 30 µM | AC50 [4]: > 30 µM | AC50 [5]: > 30 µM

O=C(O[C@H]1C[N+]2(CCCOc3ccccc3)CCC1CC2)C(O)(c1cccs1)c1cccs1 [ACLIDINIUM BROMIDE]
AC50 [8]: > 10 µM | AC50 [6]: > 10 µM | AC50 [9]: > 30 µM | AC50 [10]: > 30 µM | AC50 [7]: > 10 µM

CCC1(CC)C(=O)NC(=O)N(C)C1=O [METHARBITAL]
AC50 [6]: > 10 µM | AC50 [2]: > 10 µM | AC50 [3]: > 10 µM | AC50 [4]: > 10 µM

CC1Cc2ccccc2N1NC(=O)c1ccc(Cl)c(S(N)(=O)=O)c1 (centres undefined) [INDAPAMIDE]
AC50 [1]: > 30 µM | AC50 [8]: > 10 µM | AC50 [6]: > 10 µM | AC50 [2]: > 10 µM | AC50 [3]: > 30 µM | AC50 [7]: > 10 µM

CCc1ccc(C(=O)C(C)CN2CCCCC2)cc1 (centres undefined) [EPERISONE]
AC50 [6]: > 30 µM | AC50 [2]: > 30 µM | AC50 [3]: > 30 µM | AC50 [5]: > 30 µM

COc1cc(N)cn[n+]1-c1ccccc1 [AMEZINIUM METILSULFATE]
AC50 [2]: > 30 µM | AC50 [3]: > 30 µM | AC50 [4]: > 30 µM | AC50 [5]: > 30 µM

COC(=O)[C@H]1[C@H]2C[C@@H]3c4[nH]c5ccccc5c4CCN3C[C@H]2C[C@@H](OC(=O)c2cc(OC)c(OC)c(OC)c2)[C@@H]1OC [DESERPIDINE]
AC50 [6]: > 10 µM | AC50 [2]: > 10 µM | AC50 [3]: > 10 µM | AC50 [4]: > 10 µM

CCCCCCOC(=O)NC(=N)c1ccc(NCc2nc3cc(C(=O)N(CCC(=O)OCC)c4ccccn4)ccc3n2C)cc1 [DABIGATRAN ETEXILATE]
AC50 [1]: > 30 µM | AC50 [2]: > 30 µM | AC50 [3]: > 30 µM | AC50 [4]: > 30 µM

CNCCc1ccccn1 [BETAHISTINE]
AC50 [2]: > 30 µM | AC50 [3]: > 30 µM | AC50 [5]: > 30 µM

SITOSTEROLS
AC50 [2]: > 30 µM | AC50 [3]: > 30 µM | AC50 [4]: > 30 µM | AC50 [5]: > 30 µM

CC(=O)[C@@]1(O)CC[C@H]2[C@@H]3C[C@H](C)C4=CC(=O)C=C[C@]4(C)[C@@]3(F)[C@@H](O)C[C@@]21C [FLUOROMETHOLONE]
AC50 [6]: > 10 µM | AC50 [2]: > 10 µM | AC50 [3]: > 10 µM

CCN(C(C)=O)c1cccc(-c2ccnc3c(C#N)cnn23)c1 [ZALEPLON]
AC50 [2]: > 10 µM | AC50 [3]: > 10 µM | AC50 [7]: > 10 µM

CC(=O)OCC1=C(C(=O)O)N2C(=O)[C@@H](NC(=O)Cc3cccs3)[C@H]2SC1 [CEPHALOTHIN]
AC50 [1]: > 30 µM | AC50 [2]: > 30 µM | AC50 [3]: > 30 µM | AC50 [4]: > 30 µM | AC50 [5]: > 30 µM

COc1ccc(C(Cl)=C(c2ccc(OC)cc2)c2ccc(OC)cc2)cc1 [CHLOROTRIANISENE]
AC50 [1]: > 30 µM | AC50 [6]: > 10 µM | AC50 [2]: > 30 µM | AC50 [3]: > 30 µM | AC50 [4]: > 30 µM | AC50 [5]: > 30 µM

CC(=O)OCC1=C(C(=O)O)N2C(=O)[C@@H](NC(=O)CSc3ccncc3)[C@H]2SC1 [CEPHAPIRIN]
AC50 [6]: > 10 µM | AC50 [2]: > 10 µM | AC50 [3]: > 10 µM | AC50 [4]: > 10 µM | AC50 [5]: > 30 µM

CCCCOC(=O)c1ccc(N)cc1 [BUTAMBEN]
AC50 [2]: > 30 µM | AC50 [3]: > 30 µM | AC50 [5]: > 30 µM

CO/N=C(\C(=O)N[C@@H]1C(=O)N2C(C(=O)[O-])=C(C[n+]3ccc(N)n3CCO)CS[C@H]12)c1csc(N)n1 [CEFOSELIS]
AC50 [2]: > 30 µM | AC50 [3]: > 30 µM | AC50 [4]: > 30 µM | AC50 [5]: > 30 µM

Nc1ccc(S(=O)(=O)Nc2ncccn2)cc1 [SULFADIAZINE]
AC50 [6]: > 10 µM | AC50 [2]: > 10 µM | AC50 [3]: > 10 µM

CCC(NC(C)C)C(O)c1ccc(O)c(O)c1 (centres undefined) [ISOETHARINE]
AC50 [6]: > 30 µM | AC50 [2]: > 30 µM | AC50 [3]: > 30 µM | AC50 [4]: > 30 µM | AC50 [5]: > 30 µM

CC1=C(/C=C/C(C)=C/C=C/C(C)=C/C(=O)Oc2c(C)c(C)c3c(c2C)CCC(C)(CCCC(C)CCCC(C)CCCC(C)C)O3)C(C)(C)CCC1 (centres undefined) [TRETINOIN TOCOFERIL]
AC50 [2]: > 30 µM | AC50 [3]: > 30 µM | AC50 [4]: > 30 µM | AC50 [5]: > 30 µM

COc1nc(C)nc(Cl)c1N=C1NCCN1 [MOXONIDINE]
AC50 [1]: > 30 µM | AC50 [2]: 16 µM | AC50 [3]: 6.5 µM | AC50 [5]: > 30 µM

CN(Cc1ccc(C(C)(C)C)cc1)Cc1cccc2ccccc12 [BUTENAFINE]
AC50 [6]: > 10 µM | AC50 [2]: > 10 µM | AC50 [3]: > 10 µM
